What was measured:
B-Raf = B-Raf (Homo sapiens, UniProt P15056); experiment: Luciferase-coupled chemiluminescence kinase assay (ATP consumption), B-Raf; assay type: biochemical; settings: read-out: bRaf IC50
Summary of the method: (§1)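 ATP depletion, limited to 25-60%, read by luciferase-luciferin chemiluminescence gives IC50 values. Before the 3 hr ambient-temperature kinase reaction with ATP, compound and […] enzyme were preincubated 30 minutes at room temperature in Tris pH 7.5 buffer with MgCl2, TX-100 and DTT.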

c-Raf = c-Raf (Homo sapiens, UniProt P04049); experiment: Luciferase-coupled chemiluminescence kinase assay (ATP consumption), c-Raf; assay type: biochemical; settings: read-out: cRaf-1 IC50
c-Raf, sequence (P04049 whole entry): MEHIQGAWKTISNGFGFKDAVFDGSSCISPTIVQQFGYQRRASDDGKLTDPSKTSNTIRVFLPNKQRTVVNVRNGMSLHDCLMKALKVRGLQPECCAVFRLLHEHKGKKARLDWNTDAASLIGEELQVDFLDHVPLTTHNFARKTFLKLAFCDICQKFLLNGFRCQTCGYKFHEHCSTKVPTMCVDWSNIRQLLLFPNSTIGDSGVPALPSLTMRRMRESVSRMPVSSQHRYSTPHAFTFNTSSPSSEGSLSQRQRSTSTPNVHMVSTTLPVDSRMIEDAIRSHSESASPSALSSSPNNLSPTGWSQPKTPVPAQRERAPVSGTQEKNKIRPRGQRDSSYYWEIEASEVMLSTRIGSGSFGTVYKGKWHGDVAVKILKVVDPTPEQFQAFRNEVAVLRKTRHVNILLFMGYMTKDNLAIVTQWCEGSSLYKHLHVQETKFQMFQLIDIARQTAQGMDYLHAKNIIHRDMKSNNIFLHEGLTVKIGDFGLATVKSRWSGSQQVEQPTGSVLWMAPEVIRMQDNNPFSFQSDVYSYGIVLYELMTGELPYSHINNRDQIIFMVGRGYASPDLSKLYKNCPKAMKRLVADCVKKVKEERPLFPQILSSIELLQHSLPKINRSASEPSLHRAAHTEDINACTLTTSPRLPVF
Summary of the method: as §1

B-Raf, sequence (P15056 whole entry): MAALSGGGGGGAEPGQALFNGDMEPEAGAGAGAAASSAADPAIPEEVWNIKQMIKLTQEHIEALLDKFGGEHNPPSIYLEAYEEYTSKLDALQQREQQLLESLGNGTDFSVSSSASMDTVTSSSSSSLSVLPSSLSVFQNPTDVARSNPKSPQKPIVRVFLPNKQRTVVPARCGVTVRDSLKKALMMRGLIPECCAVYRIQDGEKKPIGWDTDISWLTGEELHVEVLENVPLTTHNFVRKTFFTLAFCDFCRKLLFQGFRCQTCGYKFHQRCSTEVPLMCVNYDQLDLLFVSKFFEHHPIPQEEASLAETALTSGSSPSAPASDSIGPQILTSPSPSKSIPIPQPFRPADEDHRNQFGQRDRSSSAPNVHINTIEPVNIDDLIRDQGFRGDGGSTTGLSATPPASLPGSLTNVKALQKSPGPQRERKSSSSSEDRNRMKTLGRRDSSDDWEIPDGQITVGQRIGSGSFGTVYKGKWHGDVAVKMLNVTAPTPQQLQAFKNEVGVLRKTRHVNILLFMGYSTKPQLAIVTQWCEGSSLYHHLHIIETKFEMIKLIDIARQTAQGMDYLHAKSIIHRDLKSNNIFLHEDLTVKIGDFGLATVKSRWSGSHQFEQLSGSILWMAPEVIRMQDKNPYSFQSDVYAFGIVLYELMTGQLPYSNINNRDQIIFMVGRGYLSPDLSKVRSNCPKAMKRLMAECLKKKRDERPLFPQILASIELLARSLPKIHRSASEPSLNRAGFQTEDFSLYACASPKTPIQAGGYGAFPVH

Row | IC50 (B-Raf) [nM] | IC50 (c-Raf) [nM] | Compound
1 | < 100 | < 100 | CC1(C)OC[C@@H](COC(=O)Nc2nc3cc(C4(O)c5ccccc5C(=O)N4Cc4ccccc4)ccc3[nH]2)O1 (stereo partly drawn) [Entry 229, [(4S)-2,2-dimethyl-1,3-dioxolan-4-yl]methyl {5-[1-hydroxy-3-oxo-2-(phenylmethyl)-2,3-dihydro-1H-isoindol-1-yl]-1H-benzimidazol-2-yl}carbamate]
2 | < 100 | < 100 | COC(=O)Nc1nc2cc(C3(O)c4ccccc4C(=O)N3c3cc(Br)ccc3F)ccc2[nH]1 (stereo not shown) [Entry 230, methyl {5-[2-(5-bromo-2-fluorophenyl)-1-hydroxy-3-oxo-2,3-dihydro-1H-isoindol-1-yl]-1H-benzimidazol-2-yl}carbamate]
3 | < 100 | < 100 | COC(=O)Nc1nc2cc(C3(O)c4ccccc4C(=O)N3c3cccc(NC(C)=O)c3)ccc2[nH]1 (stereo not shown) [Entry 231, methyl (5-{2-[3-(acetylamino)phenyl]-1-hydroxy-3-oxo-2,3-dihydro-1H-isoindol-1-yl}-1H-benzimidazol-2-yl)carbamate]
4 | < 100 | < 100 | COC(=O)Nc1nc2cc(C3(O)c4ccccc4C(=O)N3c3cccc(Cc4ccccc4)c3)ccc2[nH]1 (stereo not shown) [Entry 232, methyl (5-{1-hydroxy-3-oxo-2-[3-(phenylmethyl)phenyl]-2,3-dihydro-1H-isoindol-1-yl}-1H-benzimidazol-2-yl)carbamate]
5 | < 100 | < 100 | COC(=O)Nc1nc2cc(C3(O)c4ccccc4C(=O)N3C(C)c3cc(Cl)cs3)ccc2[nH]1 (stereo not shown) [Entry 233, methyl (5-{2-[1-(4-chloro-2-thienyl)ethyl]-1-hydroxy-3-oxo-2,3-dihydro-1H-isoindol-1-yl}-1H-benzimidazol-2-yl)carbamate]
6 | 1000 to 10000 | 100 to 1000 | COC(=O)Nc1nc2cc(C3(O)c4ccccc4C(=O)N3c3cccc(C(=O)c4ccccc4)c3)ccc2[nH]1 (stereo not shown) [Entry 234, methyl (5-{1-hydroxy-3-oxo-2-[3-(phenylcarbonyl)phenyl]-2,3-dihydro-1H-isoindol-1-yl}-1H-benzimidazol-2-yl)carbamate]
7 | 100 to 1000 | 100 to 1000 | COC(=O)Nc1nc2cc(C3(O)c4ccccc4C(=O)N3c3cccc(CN(C)C)c3)ccc2[nH]1 (stereo not shown) [Entry 235, methyl [5-(2-{3-[(dimethylamino)methyl]phenyl}-1-hydroxy-3-oxo-2,3-dihydro-1H-isoindol-1-yl)-1H-benzimidazol-2-yl]carbamate]
8 | 100 to 1000 | 100 to 1000 | COC(=O)Nc1nc2cc(C3(O)c4ccccc4C(=O)N3c3cccc(S(N)(=O)=O)c3)ccc2[nH]1 (stereo not shown) [Entry 236, methyl (5-{2-[3-(aminosulfonyl)phenyl]-1-hydroxy-3-oxo-2,3-dihydro-1H-isoindol-1-yl}-1H-benzimidazol-2-yl)carbamate]
9 | < 100 | < 100 | COC(=O)Nc1nc2cc(C3(O)c4ccccc4C(=O)N3c3cccc(C(C)=O)c3)ccc2[nH]1 (stereo not shown) [Entry 237, methyl {5-[2-(3-acetylphenyl)-1-hydroxy-3-oxo-2,3-dihydro-1H-isoindol-1-yl]-1H-benzimidazol-2-yl}carbamate]
10 | < 100 | < 100 | CCc1cc(N2C(=O)c3ccccc3C2(O)c2ccc3[nH]c(NC(=O)OC)nc3c2)ccc1F (stereo not shown) [Entry 238, methyl {5-[2-(3-ethyl-4-fluorophenyl)-1-hydroxy-3-oxo-2,3-dihydro-1H-isoindol-1-yl]-1H-benzimidazol-2-yl}carbamate]
11 | < 100 | < 100 | COC(=O)Nc1nc2cc(C3(O)c4ccccc4C(=O)N3c3cc(F)cc(Cl)c3)ccc2[nH]1 (stereo not shown) [Entry 239, methyl {5-[2-(3-chloro-5-fluorophenyl)-1-hydroxy-3-oxo-2,3-dihydro-1H-isoindol-1-yl]-1H-benzimidazol-2-yl}carbamate]
12 | 100 to 1000 | 100 to 1000 | CC(C)C(=O)Nc1nc2ccc(C3(O)c4ccccc4C(=O)N3Cc3ccccc3)cc2[nH]1 (stereo not shown) [Entry 240, N-{6-[1-hydroxy-3-oxo-2-(phenylmethyl)-2,3-dihydro-1H-isoindol-1-yl]-1H-benzimidazol-2-yl}-2-methylpropanamide]
13 | 1000 to 10000 | 1000 to 10000 | COC(=O)Nc1nc2cc(C3(O)c4ccccc4C(=O)N3C(C)c3sccc3Cl)ccc2[nH]1 (stereo not shown) [Entry 241, methyl (5-{2-[1-(3-chloro-2-thienyl)ethyl]-1-hydroxy-3-oxo-2,3-dihydro-1H-isoindol-1-yl}-1H-benzimidazol-2-yl)carbamate]
14 | 100 to 1000 | < 100 | COC(=O)Nc1nc2cc(C3(O)c4ccccc4C(=O)N3c3cccnc3)ccc2[nH]1 (stereo not shown) [Entry 242, methyl [5-(1-hydroxy-3-oxo-2-pyridin-3-yl-2,3-dihydro-1H-isoindol-1-yl)-1H-benzimidazol-2-yl]carbamate]
15 | 100 to 1000 | 100 to 1000 | COC(=O)Nc1nc2cc(C3(O)c4ccccc4C(=O)N3c3cccc(Nc4ccccc4)c3)ccc2[nH]1 (stereo not shown) [Entry 243, methyl (5-{1-hydroxy-3-oxo-2-[3-(phenylamino)phenyl]-2,3-dihydro-1H-isoindol-1-yl}-1H-benzimidazol-2-yl)carbamate]
16 | < 100 | < 100 | COC(=O)Nc1nc2cc(C3(O)c4ccccc4C(=O)N3c3cc(Br)c(F)cc3F)ccc2[nH]1 (stereo not shown) [Entry 244, methyl {5-[2-(5-bromo-2,4-difluorophenyl)-1-hydroxy-3-oxo-2,3-dihydro-1H-isoindol-1-yl]-1H-benzimidazol-2-yl}carbamate]
17 | < 100 | < 100 | COC(=O)Nc1nc2cc(C3(O)c4ccccc4C(=O)N3c3cc(Cl)c(F)cc3F)ccc2[nH]1 (stereo not shown) [Entry 245, methyl {5-[2-(5-chloro-2,4-difluorophenyl)-1-hydroxy-3-oxo-2,3-dihydro-1H-isoindol-1-yl]-1H-benzimidazol-2-yl}carbamate]
18 | 1000 to 10000 | 100 to 1000 | COC(=O)Nc1nc2cc(C3(O)c4ccccc4C(=O)N3c3cc(Cl)c(F)c(Cl)c3)ccc2[nH]1 (stereo not shown) [Entry 246, methyl {5-[2-(3,5-dichloro-4-fluorophenyl)-1-hydroxy-3-oxo-2,3-dihydro-1H-isoindol-1-yl]-1H-benzimidazol-2-yl}carbamate]
19 | 100 to 1000 | 100 to 1000 | COCC(C)(C)COC(=O)Nc1nc2cc(C3(O)c4ccccc4C(=O)N3Cc3ccccc3)ccc2[nH]1 (stereo not shown) [Entry 247, 2,2-dimethyl-3-(methyloxy)propyl {5-[1-hydroxy-3-oxo-2-(phenylmethyl)-2,3-dihydro-1H-isoindol-1-yl]-1H-benzimidazol-2-yl}carbamate]
20 | 100 to 1000 | 100 to 1000 | CC(C)(CO)COC(=O)Nc1nc2cc(C3(O)c4ccccc4C(=O)N3Cc3ccccc3)ccc2[nH]1 (stereo not shown) [Entry 248, 3-hydroxy-2,2-dimethylpropyl {5-[1-hydroxy-3-oxo-2-(phenylmethyl)-2,3-dihydro-1H-isoindol-1-yl]-1H-benzimidazol-2-yl}carbamate]
21 | < 100 | < 100 | COC(=O)Nc1nc2cc(C3(O)c4ccccc4C(=O)N3C(C)c3ccc(Br)s3)ccc2[nH]1 (stereo not shown) [Entry 249, methyl (5-{2-[1-(5-bromo-2-thienyl)ethyl]-1-hydroxy-3-oxo-2,3-dihydro-1H-isoindol-1-yl}-1H-benzimidazol-2-yl)carbamate]
22 | < 100 | < 100 | COC(=O)Nc1nc2cc(C3(O)c4ccccc4C(=O)N3c3cc(Cl)c(Cl)cc3F)ccc2[nH]1 (stereo not shown) [Entry 250, methyl {5-[2-(4,5-dichloro-2-fluorophenyl)-1-hydroxy-3-oxo-2,3-dihydro-1H-isoindol-1-yl]-1H-benzimidazol-2-yl}carbamate]
23 | < 100 | < 100 | COC(=O)Nc1nc2cc(C3(O)c4ccccc4C(=O)N3c3cccc(Br)c3F)ccc2[nH]1 (stereo not shown) [Entry 251, methyl {5-[2-(3-bromo-2-fluorophenyl)-1-hydroxy-3-oxo-2,3-dihydro-1H-isoindol-1-yl]-1H-benzimidazol-2-yl}carbamate]
24 | < 100 | < 100 | COC(=O)Nc1nc2cc(C3(O)c4ccccc4C(=O)N3c3ccc(F)c(Cl)c3F)ccc2[nH]1 (stereo not shown) [Entry 252, methyl {5-[2-(3-chloro-2,4-difluorophenyl)-1-hydroxy-3-oxo-2,3-dihydro-1H-isoindol-1-yl]-1H-benzimidazol-2-yl}carbamate]
25 | < 100 | < 100 | C#CCCC(=O)Nc1nc2ccc(C3(O)c4ccccc4C(=O)N3Cc3ccccc3)cc2[nH]1 (stereo not shown) [Entry 253, N-{6-[1-hydroxy-3-oxo-2-(phenylmethyl)-2,3-dihydro-1H-isoindol-1-yl]-1H-benzimidazol-2-yl}pent-4-ynamide]
26 | < 100 | < 100 | COC(=O)Nc1nc2ccc(C3(C)c4ccccc4C(=O)N3c3cccc(C(F)(F)F)c3)cc2[nH]1 (stereo not shown) [Entry 254, methyl (6-{1-methyl-3-oxo-2-[3-(trifluoromethyl)phenyl]-2,3-dihydro-1H-isoindol-1-yl}-1H-benzimidazol-2-yl)carbamate]
27 | 1000 to 10000 | 1000 to 10000 | COC(=O)Nc1nc2cc(C3(O)c4ccccc4C(=O)N3c3cccc(OC(F)(F)C(F)F)c3)ccc2[nH]1 (stereo not shown) [Entry 255, methyl [5-(1-hydroxy-3-oxo-2-{3-[(1,1,2,2-tetrafluoroethyl)oxy]phenyl}-2,3-dihydro-1H-isoindol-1-yl)-1H-benzimidazol-2-yl]carbamate]
28 | 100 to 1000 | 100 to 1000 | COC(=O)Nc1nc2cc(C3(O)c4ccccc4C(=O)N3c3cccc(C4CCNCC4)c3)ccc2[nH]1 (stereo not shown) [Entry 256, methyl {5-[1-hydroxy-3-oxo-2-(3-piperidin-4-ylphenyl)-2,3-dihydro-1H-isoindol-1-yl]-1H-benzimidazol-2-yl}carbamate]

Row | Compound | IC50 (B-Raf) [nM] | IC50 (c-Raf) [nM]
29 | C=Cc1cccc(N2C(=O)c3ccccc3C2(O)c2ccc3[nH]c(NC(=O)OC)nc3c2)c1 (stereo not shown) [Entry 257, methyl {5-[2-(3-ethenylphenyl)-1-hydroxy-3-oxo-2,3-dihydro-1H-isoindol-1-yl]-1H-benzimidazol-2-yl}carbamate] | < 100 | < 100

— patent publication US7846959B2, “Raf modulators and methods of use” (Exelixis, Inc., priority 2004, dated 2010)
